According to PubChem BioAssay (NCI):
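Step 1: Grow cells in 96-well plates. Step 2: Expose to compound for 48 hours at 5 concentrations. Step 3: Interpolate endpoints linearly; if unreached, use highest concentration. The concentration for full growth arrest is given as TGI.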

Columns and labels:
Assay in all cases: NCI-60 cell line screen, 48 h
786-0 renal = system: 786-0 renal
MALME-3M melanoma = system: MALME-3M melanoma
MDA-MB-435 = system: MDA-MB-435
SNB-75 CNS = system: SNB-75 CNS
NCI/ADR-RES ovarian = system: NCI/ADR-RES ovarian
IGROV1 ovarian = system: IGROV1 ovarian
ACHN renal = system: ACHN renal
SF-268 CNS = system: SF-268 CNS
TK-10 renal = system: TK-10 renal
UACC-62 melanoma = system: UACC-62 melanoma
UO-31 renal = system: UO-31 renal
MDA-N = system: MDA-N

Row | Compound | TGI (786-0 renal) | TGI (MALME-3M melanoma) | TGI (MDA-MB-435) | TGI (SNB-75 CNS) | TGI (NCI/ADR-RES ovarian) | TGI (IGROV1 ovarian) | TGI (ACHN renal) | TGI (SF-268 CNS) | TGI (TK-10 renal) | TGI (UACC-62 melanoma) | TGI (UO-31 renal) | TGI (MDA-N)
1 | Cc1ccc(C(=O)Nc2ccc(CP(=O)(O)O)cc2)cc1NC(=O)c1cccc(NC(=O)Nc2cccc(C(=O)Nc3cc(C(=O)Nc4ccc(CP(=O)(O)O)cc4)ccc3C)c2)c1 | > 100 µM | > 100 µM | > 100 µM | > 100 µM | > 100 µM | > 100 µM | > 100 µM | > 100 µM | > 100 µM | > 100 µM | > 100 µM | > 100 µM
2 | N#CSCc1cccc(Nc2cc(=O)[nH]c(=O)[nH]2)c1 | > 100 µM | > 100 µM | > 100 µM | > 100 µM | > 100 µM | > 100 µM | > 100 µM | 78.4 µM | > 100 µM | > 100 µM | > 100 µM | > 100 µM
3 | CC(=O)OCC1OC(n2c(=S)[nH]c(-c3ccccc3)c(C#N)c2=O)C(OC(C)=O)C(OC(C)=O)C1OC(C)=O (configuration not stated) | > 100 µM | > 100 µM | > 100 µM | > 100 µM | > 100 µM | > 100 µM | > 100 µM | > 100 µM | > 100 µM | > 100 µM | > 100 µM | > 100 µM
4 | O=C(O)Cc1ccc2nc(COC(=O)c3ccccc3)sc2c1 | > 100 µM | > 100 µM | > 100 µM | > 100 µM | > 100 µM | > 100 µM | > 100 µM | > 100 µM | > 100 µM | > 100 µM | > 100 µM | > 100 µM
5 | CCOC(=O)C1C(=O)CC(O)(c2ccccc2)C(C(=O)OCC)C1c1ccc(OC)cc1 (configuration not stated) | > 59.2 µM | > 100 µM | 11.4 µM | 11.9 µM | > 55.9 µM | > 100 µM | > 100 µM | > 100 µM | > 100 µM | > 100 µM | > 100 µM | 16 µM
6 | CCOC(=O)c1cnc2[nH]ccn2c1=O | > 10 µM | > 10 µM | > 10 µM | > 10 µM | > 10 µM | > 10 µM | > 10 µM | > 10 µM | > 10 µM | > 10 µM | > 10 µM | > 10 µM
7 | Cc1cccc(C[C@@]2(SCc3ccccc3)C(C)(C)[C@@H]3CC[C@@]2(C)C3)n1 | 35.5 µM | 33 µM | 78.3 µM | 34.4 µM | 30.2 µM | 28.7 µM | 28.8 µM | 29.5 µM | 34.5 µM | 35.5 µM | 37.2 µM | 60.2 µM
8 | COC(=O)CCCC(=O)C(=Nc1c(Cl)cccc1Cl)NNc1ccc(Cl)cc1 | > 100 µM | > 100 µM | > 100 µM | > 88.9 µM | > 100 µM | > 100 µM | > 100 µM | > 100 µM | > 100 µM | > 100 µM | > 100 µM | > 100 µM
9 | COC(=O)C1CC(C=[N+](C)C)=C(SC)N1 (configuration not stated) | > 100 µM | > 100 µM | > 100 µM | > 100 µM | > 100 µM | > 100 µM | > 100 µM | > 100 µM | > 100 µM | > 100 µM | > 100 µM | > 100 µM
10 | CC1=CC=CC(C)(C)CC1(O[Si](C)(C)C)C(F)(F)F (configuration not stated) | > 100 µM | > 100 µM | > 100 µM | > 100 µM | > 100 µM | > 100 µM | > 100 µM | > 100 µM | > 100 µM | > 100 µM | > 100 µM | > 100 µM
11 | O=C1OC[C@@H]2Cc3c([nH]c4ccccc34)[C@@H](c3ccc(O)cc3)N12 | > 100 µM | 85.1 µM | 68.2 µM | 69.4 µM | > 100 µM | 61.1 µM | > 74.2 µM | > 100 µM | > 100 µM | 69.8 µM | > 100 µM | > 100 µM
12 | CCOP(=O)(OCC)/C(F)=C/c1ccccc1 | > 100 µM | > 100 µM | > 100 µM | > 100 µM | > 100 µM | > 100 µM | > 100 µM | > 100 µM | > 100 µM | > 100 µM | > 100 µM | > 100 µM
13 | Cc1nc(Cl)c(CBr)c(Cl)n1 | 1 µM | 2.92 µM | 3.3 µM | 2.26 µM | 7.8 µM | 3.39 µM | 3.15 µM | 8.85 µM | 3.68 µM | 3.46 µM | 3.2 µM | 2.97 µM
14 | O=C1/C(=C/c2ccc(Br)s2)NC(=S)N1CN1CCOCC1 | > 100 µM | > 100 µM | > 100 µM | > 100 µM | > 100 µM | > 100 µM | > 100 µM | > 100 µM | > 100 µM | 48.6 µM | > 100 µM | > 100 µM
15 | CN1CN(c2ccccc2)C2(CCN(CCCC3(c4cccs4)OCCO3)CC2)C1=O | > 100 µM | > 100 µM | > 100 µM | > 100 µM | > 100 µM | > 100 µM | > 100 µM | > 100 µM | > 100 µM | > 100 µM | > 100 µM | > 100 µM
16 | C(=Nc1ccc(-c2nc3ccccc3s2)cc1)c1ccco1 | > 100 µM | > 100 µM | > 100 µM | > 100 µM | > 100 µM | > 100 µM | > 100 µM | > 100 µM | 8.51 µM | > 100 µM | > 100 µM | > 100 µM
